Results on one compound are retold here after US20200246308A1, “SYNERGISTIC COMBINATIONS OF UROLITHINS A AND B FOR IMPROVING COGNITIVE CAPACITY OR COGNITIVE FUNCTION” (Natreon, Inc., priority 2018, published 2020).

Assay [1] deals with acetylcholine (ACh) level in HIP tissue. Description: Acetylcholine level in hippocampal tissue, Amplex Red kit (Example 9D). The conditions noted are these: p.o. 7 days: B 50, A 50, Donepezil 3, B:A 10:50 and 50:50, Shilajit 50 mg/kg. Type of assay: in vivo, Male Wistar rats. As to the method:
Drug solution was freshly prepared in 0.3% CMC and administered by oral gavage once a day, for a period of 7 days. Briefly, the whole experiment was conducted for 8 days. Scopolamine (1 mg/kg), a muscarinic receptor antagonist, was dissolved in normal saline (0.9% NaCl) and administered intraperitoneally 1 h after drugs administration on seventh day.
Sample preparation: The animals were killed by decapitation and the brain tissues were dissected out in ice-cold conditions and stored at −80° C. until use. Tissue was homogenized in 1.0 ml of 0.1M perchloric acid with a Potter-Elvehjem homogenizer. The homogenate was kept in the polypropylene tubes for 15 min after which 40 μl of 4M potassium acetate was added to adjust the pH to 4.0 followed by centrifugation for 15 min at 4000×g. Supernatant was used to estimate acetylcholine and AChE activities.
Samples were prepared as in Example 9C. The amount of acetylcholine in brain tissues was measured using Amplex red assay kit (Molecular Probes, Inc., USA). An acetylcholine standard curve was used in each experiment. Briefly, the reactions are initiated by adding 0.1 ml of control (10 μM H2O2) and tissue homogenates were taken in two separate polypropylene tubes and then 0.1 ml working solution of 400 μM Amplex Red reagent containing 2 U/mL HRP, 0.2 U/mL choline oxidase and 1 U/mL acetylcholinesterase were added to each tube. After incubation for 45 min, the fluorescence was recorded with the help of spectrofluorometer at 530 nm excitation and 590 nm emission wavelengths. The protein content was determined using standard protocol (Lowry, et al., 1951).
Statistical analyses: The results were expressed as means±Standard Error mean (SEM). The intergroup variation was measured by one-way ANOVA followed by Student-Newman-Keuls test. Two-way followed by Bonferroni test was employed to discover the intergroup variation in Y maze test considering groups and arms as two independent variables. Statistical analysis was done by using Graph Pad prism version 5 (San Diego, Calif.). A level of p<0.05 was accepted as statistically significant.

The test system of assay [2] is scopolamine induced dementia in rats. Put plainly: Y-maze test, scopolamine induced dementia in rats (Study 2). Type of assay: in vivo, Charles Foster male albino rats. The conditions noted are these: Donepezil 5 mg/kg i.p.; shilajit effect at 100 mg/kg. As to the method: 2.2. Animal subjects. Inbred Charles Foster male albino rats (130-180 g) were obtained from the Central Animal House, Institute of Medical Sciences (IMS), Banaras Hindu University (BHU), Varanasi, Uttar Pradesh, India. These were certified to be pathogen free and were randomly distributed into different experimental groups. The rats were kept in the departmental animal house at an ambient temperature of 25±1° C. and 45-55% RH, with a 12-h light/dark cycle (lights on 7:00-19:00 h). The animals had free access to standard pellet chow and tap water ad libitum. Experiments were conducted between 9:00 and 14:00 h. The behavioral testing was done during the light phase. Animals were housed in groups and acclimatized for at least one week before using them for experiments. Animals were transported in cage covered by dark cloth to the experimental room. The experimental procedures were in compliance with National Institutes of Health Guide for Care and Use of Laboratory Animals.
The rats were pretreated orally for seven days through an orogastric tube with experimental drugs (10, 25 and 50 mg/kg once daily) suspended in 0.3% carboxymethyl cellulose (CMC). The treatment was continued until the end of the experiment procedures (Singh, G. K., Garabadu, D., Muruganadam, A. V., Joshi, V. K., Krishnamurthy, S., “Antidepressant activity of Asparagus racemosus in animal models of depression,” Pharmacol. Biochem. Behav. (2009) 91(3):283-90). Scopolamine was dissolved in water for injection and administered on day 7 after one hour of drug treatment administration. Donepezil (5 mg/kg; i.p.)
was used as standard drug. On day 8 the behavioral experiment was performed. The animals were sacrificed and hippocampus was micro-dissected using the coordinates of the rat brain atlas. All control group animals were treated with the 0.3 ml of vehicle (0.3% CMC suspension) equal to the volume of experimental drugs (Ohj a, R., et al., “Asparagus recemosus enhances memory and protects against amnesia in rodent models,” Brain Cogn. (2010) October; 74(1): 1-9).
Spatial recognition memory, general exploratory behavior, and anxiety-like behavior were assessed by the Y-maze test. Y-maze consists of three similar arms of dimension 50 cm long, 16 cm wide and 32 cm high. In the first trial, the novel arm was blocked and the animal was allowed to move for 15 min in other two arms. In the second trial, the novel arm was opened and the animal was allowed to move for 5 min in all three arms after 4 h of the first trial. The total number of entries in all arms (for 5 min of trial-1 and trial-2) is indicative of general exploration attitude (curiosity). The % entries in known and novel arms for the 5 min period of trial 2 were considered as a measure of spatial recognition memory. Coping strategy to the novel environment was estimated by the percentage of the ratio of time spent in the novel arm to time spent in all arms and in the center of the apparatus during trial 2. The decrease in the coping behavior to the novel environment was considered as an increase in anxiety-like behavior (Krishnamurthy, S., et al., “Risperidone ameliorates post-traumatic stress disorder-like symptoms in modified stress re-stress model,” Neuropharmacology (2013) 75:62-77).

For the compound `COc1cc2c(cc1OC)C(=O)C(CC1CCN(Cc3ccccc3)CC1)C2` (centres unmarked) [Donepezil, reference compound], the “Scopolamine-induced decrease in ACh level in HIP tissue” value in assay [1] is on record as “the same as 3-OH-DBP (B) (50 mg/kg) group”. The “Scopolamine-induced altered exploratory behavior (total arm entries)” value in assay [2] was “reversed this activity”.
